The results in this text go back to patent US10092515B2, “Liposomal formulations of polymyxin B and uses thereof” (University of Houston System, priority 2012, dated 2018).

Read-outs that look alike come from different tables or passages of the source. Where a SMILES comes first, the peptide text is derived from it. Bridges are numbered along the chain shown (N, C = ends). [ ]: non-standard residue; d: D form. The star is where a group is joined. Heptanoyl(6-Me) = CC(C)CCCCC(=O)*; X1 = CC[C@H](C)CCCCC(=O)*; Octanoyl = CCCCCCCC(=O)*; Dab = NCC[C@H](N)C(=O)O

One data set concerns Lrp2/megalin. Nature of the data set: Urinary excretion of megalin after maleate administration (ELISA). Format: in vivo. Conditions: rats, single 400 mg/kg intraperitoneal dose. The protocol:
Three rats were housed individually in separate metabolic cages 24 h prior to maleate pretreatment. A single dose of 400 mg/kg of sodium maleate was given intraperitoneally; this was previously reported to induce reversible ultrastructural modifications in the apical brush border membrane of proximal renal tubules (34). To study megalin urinary excretion, cumulative urine was collected daily from day −1 to day 15. The urine samples were spun down to remove particulate matter. Subsequently, the urine samples were aliquoted and stored at −80° C. prior to analysis. The samples were thawed, and urinary Lrp2/megalin concentrations were quantitatively measured using a commercially available ELISA kit for megalin. For each animal, the daily megalin concentrations were expressed as a normalized ratio to the baseline megalin value.
On the technique in general: In an ELISA, binding on a coated surface is turned into a signal by an enzyme label.

For the next data set, the system named is proximal tubules. In words: Electron microscopy of maleate-treated kidney sections. It is filed as in vivo. To be noted: rats. The protocol:
For morphological studies, one animal was sacrificed at 3 h and another at 14 days after maleate administration to collect the kidneys. The harvested kidneys were submitted for electron microscopic studies. Tissue samples from both renal cortical and medullary regions were fixed in 2% glutaraldehyde at 4° C. overnight, followed by additional fixation in osmium tetroxide. The renal tissue was dehydrated and embedded in epoxy resin. Approximately 1-μm pilot sections were stained with toluidine for selection of the areas for further ultrastructural examination. Thin sections of these selected areas were cut and subjected to examination under a JEOL 300 electron microscope at 80 kV. The kidneys from two naive rats were harvested, processed in a similar fashion, and used as controls.

Data set [1] is described as follows: Kidney exposure after IV polymyxin liposome or solution (USP). It is filed as in vivo, mice. Conditions: for AUC0-6 h, kidney / AUC(0-t): female, ND4 Swiss Webster.
Data set [2] is described as follows: Serum pharmacokinetics after intravenous polymyxin B liposomes or aqueous solution (USP). Format: in vivo, Swiss Webster mice. To be noted: for AUC(0-t): n = 4, normalized by dose, read-out: AUC0-6 h. On the procedure:
(§1) The animal protocol was approved by the University of Houston Institutional Animal Care and Use Committee. The animals received food and water ad libitum. Two groups of 24 female ND4 Swiss Webster mice (20-23 g, Harlan Laboratory, Indianapolis, Ind.) were intravenously administrated PB liposomes and aqueous solution (USP), respectively, at approximately 3 mg/kg through the tail vein. At each time point (0.1, 0.5, 1, 2, 4 and 6 h post-dose), four mice were sacrificed for blood and epithelial lining fluid sample collection. The blood samples were clotted on crushed ice and the serum was obtained by centrifugation. The epithelial lining fluid samples were obtained by bronchoalveolar lavage. All the serum and epithelial lining fluid samples were stored at −80° C. until analysis.
(§2) Four major polymyxin B components in serum and epithelial lining fluid samples were assayed by a validated UPLC-MS/MS method. An Acquity UPLC HSS C18 column was used with 0.1% formic acid/acetonitrile as mobile phases. Analysis was performed in positive ionization mode with multiple reactions monitoring (MRM) scan type. Briefly, the serum and epithelial lining fluid samples (200 μl) were spiked with 20 μl of carbutamide (internal standard). Two hundred μl of 5% trichloroacetic acid was added to precipitate the proteins, followed by 1 min of vortexing. After centrifugation at 18,000× g for 15 min, the supernatant was transferred to a new tube and evaporated to dryness under a stream of nitrogen. The residue was reconstituted in 100 μl of mobile phase (acetonitrile: 0.1% formic acid=50:50) and then centrifuged at 18,000×g for 15 minutes. Ten μl of supernatant was injected into the UPLC-MS/MS for quantitative analysis. The linear concentration range was 6.5-3200 ng/ml for both serum and epithelial lining fluid samples. The intra-day and inter-day variance was less than […] for all the components in both serum and epithelial lining fluid. The concentration of drug in epithelial lining fluid (CELF) was corrected using the equation: CELF=CBALF× Ureaserum/UreaBALF, where UreaBALF and Ureaserum were the concentrations of urea in bronchoalveolar lavage fluid (BALF) and serum, respectively (18).
(§3) Concentrations of urea in serum and BALF samples were quantified with a commercially available assay kit (Quantichrom™ Urea Assay kit, BioAssay System, Hayward, Calif.) and measured on a Synergy2 microplate reader (BioTek Instrument, Winooski, Vt.). Drug exposures observed in both serum and epithelial lining fluid were normalized by the specific dose of each batch of liposomes to account for the variances among different pharmacokinetic experiments. Naïve data averaging was used; the best-fit pharmacokinetic parameters as well as drug exposure in serum and ELF were calculated by WinNonlin 3.3 (Pharsight Corporation, Mountain View, Calif.) using a one-compartment model and non-compartmental analysis, respectively. Statistical differences between liposome and aqueous solution were determined by Mann-Whitney test at the significance level of p≤0.05.

The nature of data set [3]: Epithelial lining fluid (ELF) pharmacokinetics after intravenous polymyxin B liposomes or aqueous solution (USP). It is filed as in vivo, Swiss Webster mice. Conditions: for AUC(0-t): female, ND4 Swiss Webster, n = 4, read-out: AUC0-6 h, epithelial lining fluid. On the procedure:
as §1, §2, §3

Setting [4] is: mouse, in vivo, iv, 3 mg/kg, AUC0-6 h, kidney.
Where [5] appears, read: female, ND4 Swiss Webster, mouse, in vivo, iv.

In the case of `O=C([O-])/C=C\C(=O)[O-].[Na+].[Na+]` [maleate, Sodium maleate dibasic salt], the “elevation in the level of urinary megalin” value with Lrp2/megalin is “approximately 20 times the baseline measurement”. Besides, the “time until urinary megalin levels reverted to baseline” value in the data set on Lrp2/megalin was “approximately 11 days”. For the same molecule, the “electron microscopic findings in kidney” value is “no significant changes” in the data set on proximal tubules (two weeks after 400 mg/kg intraperitoneally); “morphological and ultrastructural changes in the proximal tubules” with proximal tubules (within 3 h after 400 mg/kg intraperitoneally).
For orientation: clearance means the rate of elimination divided by the concentration. Take `CC(C)CCCCC(=O)N[C@@H](CCN)C(=O)N[C@H](C(=O)N[C@@H](CCN)C(=O)N[C@H]1CCNC(=O)[C@H]([C@@H](C)O)NC(=O)[C@H](CCN)NC(=O)[C@H](CCN)NC(=O)[C@H](CC(C)C)NC(=O)[C@@H](Cc2ccccc2)NC(=O)[C@H](CCN)NC1=O)[C@@H](C)O` [PB2, polymyxin B2] ({Heptanoyl(6-Me)}-[Dab]T[Dab][Dab][Dab][dF]L[Dab][Dab]T; lactam 4-C (inferred)): in data set [1] (mouse, in vivo, iv, 3 mg/kg), the “AUC0-6 h, kidney” value came to 12240 ng·h/mL and the “AUC ratio (liposome:solution), kidney” value stood at 0.77. Further, in data set [1] (setting [4]), the AUC(0-t) is 9440 ng·h/mL. In data set [2] (setting [5]), the clearance is 5.14 mL/min/kg and the half-life is 26.4 min. Also, in data set [2] (mouse, in vivo, iv), the “Cl (clearance)” value came out at 14.998 mL/min/kg, the “T1/2 (elimination half-life)” value is 12.6 min and the “Vss (volume of distribution at steady state)” value turned out to be 0.27474 L/kg. Also, the “time post-dose up to which the component could be quantified in ELF” value (from here on “time post-dose up”) in data set [3] (mouse, in vivo, iv) was “up to 2 h”. The “AUC ratio (liposome:solution), epithelial lining fluid” value (from here on “AUC ratio … epithelial lining fluid”) in data set [3] (mouse, in vivo, iv, 3 mg/kg) amounted to 11.10.
With `CC[C@H](C)CCCCC(=O)N[C@@H](CCN)C(=O)N[C@H](C(=O)N[C@@H](CCN)C(=O)N[C@H]1CCNC(=O)[C@H]([C@@H](C)O)NC(=O)[C@H](CCN)NC(=O)[C@H](CCN)NC(=O)[C@H](CC(C)C)NC(=O)[C@@H](Cc2ccccc2)NC(=O)[C@H](CCN)NC1=O)[C@@H](C)O` [PB1, polymyxin B1] (X1-[Dab]T[Dab][Dab][Dab][dF]L[Dab][Dab]T; lactam 4-C), the AUC(0-t) in data set [1] (mouse, in vivo, iv, 3 mg/kg, kidney, mice, IV 3 mg/kg polymyxin liposome, n = 24, read-out: AUC0-6 h, kidney) was 28400 ng·h/mL; in data set [1] (mouse, in vivo, iv, 3 mg/kg, kidney, mice, IV 3 mg/kg polymyxin solution (USP), n = 24, read-out: AUC0-6 h, kidney), 34200 ng·h/mL; in data set [2] (female, ND4 Swiss Webster, mouse, in vivo, iv, 3 mg/kg, serum, mice, IV polymyxin B liposomes approx. 3 mg/kg), 4770 ng·h/mL; in data set [2] (female, ND4 Swiss Webster, mouse, in vivo, iv, 3 mg/kg, serum, mice, IV polymyxin B solution (USP) approx. 3 mg/kg), 2760 ng·h/mL; in data set [3] (mouse, in vivo, iv, 3 mg/kg, ELF, mice, IV 3 mg/kg polymyxin liposome), 9750 ng·h/mL; in data set [3] (mouse, in vivo, iv, 3 mg/kg, ELF, mice, IV 3 mg/kg polymyxin solution (USP)), 1570 ng·h/mL. For the same molecule, the “AUC ratio (liposome:solution), kidney” value in data set [1] (kidney, mice, IV 3 mg/kg) came to 0.83. Further, the half-life in data set [2] (female, ND4 Swiss Webster, mouse, in vivo, 3 mg/kg, serum, mice, IV polymyxin B liposomes, one-compartment model, read-out: T1/2 (elimination half-life) (converted)) was 36 min. The total clearance in data set [2] (mice, IV aqueous solution approx. 3 mg/kg) is listed as 1.4±0.5 I/h/kg; in data set [2] (mice, IV liposomal formulation approx. 3 mg/kg) it was 0.6±0.3 I/h/kg. Moreover, the “AUC ratio … epithelial lining fluid” value in data set [3] (ELF, mice, IV 3 mg/kg) worked out at 6.21.
For `CCCCCCCC(=O)N[C@@H](CCN)C(=O)N[C@H](C(=O)N[C@@H](CCN)C(=O)N[C@H]1CCNC(=O)[C@H]([C@@H](C)O)NC(=O)[C@H](CCN)NC(=O)[C@H](CCN)NC(=O)[C@H](CC(C)C)NC(=O)[C@@H](Cc2ccccc2)NC(=O)[C@H](CCN)NC1=O)[C@@H](C)O` [PB3, polymyxin B3] (Octanoyl-[Dab]T[Dab][Dab][Dab][dF]L[Dab][Dab]T; lactam 4-C), in data set [1] (mouse, in vivo, iv, 3 mg/kg), the “AUC ratio (liposome:solution), kidney” value is reported as 0.37. For the same molecule, the half-life in data set [2] (setting [5]) was 18 min. In data set [2] (mouse, in vivo, iv), the “T1/2 (elimination half-life)” value was 16.8 min. In data set [3] (mouse, in vivo, iv), the “time post-dose up” value is “up to 2 h”. The “AUC ratio … epithelial lining fluid” value in data set [3] (mouse, in vivo, iv, 3 mg/kg) stood at 4.92.
For the molecule `CC[C@H](C)CCCCC(=O)N[C@@H](CCN)C(=O)N[C@H](C(=O)N[C@@H](CCN)C(=O)N[C@H]1CCNC(=O)[C@H]([C@@H](C)O)NC(=O)[C@H](CCN)NC(=O)[C@H](CCN)NC(=O)[C@H]([C@@H](C)CC)NC(=O)[C@@H](Cc2ccccc2)NC(=O)[C@H](CCN)NC1=O)[C@@H](C)O` [ile-PB1, isoleucine polymyxin B1] (X1-[Dab]T[Dab][Dab][Dab][dF]I[Dab][Dab]T; lactam 4-C), in data set [1] (mouse, in vivo, iv, 3 mg/kg), the “AUC0-6 h, kidney” value came out at 4980 ng·h/mL and the “AUC ratio (liposome:solution), kidney” value came out at 0.84. Besides, the AUC(0-t) in data set [1] (setting [4]) is 4160 ng·h/mL. Moreover, the half-life in data set [2] (setting [5]) is 25.2 min. Besides, the “T1/2 (elimination half-life)” value in data set [2] (mouse, in vivo, iv) stood at 17.4 min. Moreover, in data set [3] (mouse, in vivo, iv), the “time post-dose up” value was “up to 4 h”. Further, the “AUC ratio … epithelial lining fluid” value in data set [3] (mouse, in vivo, iv, 3 mg/kg) is 4.55.
